# Test results: patent publication US8952024B2, “Herbicidal pyrimidone derivatives” (E I du Pont de Nemours and Company, priority 2009, dated 2015)
# Columns and labels:
# Type in all cases: in vivo
# [1] = system: windgrass (Apera spica-venti); test: Test C plant response; conditions: Preemergence, scale 0 to 100
# [2] = system: buckwheat (wild buckwheat, Polygonum convolvulus); test: Test C plant response; conditions: Preemergence, scale 0 to 100
# [3] = system: deadnettle (henbit deadnettle, Lamium amplexicaule); test: Test C plant response; conditions: Preemergence, scale 0 to 100
# [4] = system: spring barley (Hordeum vulgare); test: Test C plant response; conditions: Preemergence, scale 0 to 100
# [5] = system: Italian ryegrass (Lolium multiflorum); test: Test C plant response; conditions: Preemergence, scale 0 to 100
# [6] = system: wild mustard (Sinapis arvensis); test: Test C plant response; conditions: Preemergence, scale 0 to 100
# [7] = system: field violet (Viola arvensis); test: Test C plant response; conditions: Preemergence, scale 0 to 100
# [8] = system: green foxtail (Setaria viridis); test: Test C plant response; conditions: Preemergence, scale 0 to 100
# [9] = system: blackgrass (Alopecurus myosuroides); test: Test C plant response; conditions: Preemergence, scale 0 to 100
# [10] = system: canarygrass (Phalaris minor); test: Test C plant response; conditions: Preemergence, scale 0 to 100
# [11] = system: ricefield bulrush (Scirpus mucronatus); test: Test E flooded paddy rice and weeds; conditions: applied to paddy water, 21 days, scale 0 to 100
# Description: (§1) Three plastic pots (ca. 16-cm diameter) for each application were partially filled with sterilized Tama silt loam soil comprising a 35:50:15 ratio of sand, silt and clay and 2.6% organic matter. Separate plantings for each of the three pots were as follows. Seeds from the U.S. of ducksalad (Heteranthera limosa), sedge (smallflower umbrella sedge, Cyperus difformis), ricefield bulrush (Scirpus mucronatus) and redstem (purple redstem, Ammannia coccinea), were planted into one 16-cm pot for each rate. Seeds from the U.S. of flatsedge (rice flatsedge, Cyperus iria), sprangletop (bearded (i.e. Brdd.) sprangletop, Leptochloa fascicularis), one stand of 9 or 10 water seeded rice seedlings (Oryza sativa cv. ‘Japonica—M202’), and two stands of 3 or 4 transplanted rice seedlings (Oryza sativa cv. ‘Japonica—M202’) were planted into one 16-cm pot for each rate. Seeds from the U.S. of barnyardgrass (Echinochloa crus-galli), late watergrass (Echinochloa oryzicola), early watergrass (Echinochloa oryzoides) and junglerice (Echinochloa colona) were planted into one 16-cm pot for each rate. Plantings were sequential so that crop and weed species were at the 2.0 to 2.5-leaf stage at time of treatment.
# (§2) Potted plants were grown in a greenhouse with day/night temperature settings of 30/27° C., and supplemental balanced lighting was provided to maintain a 16-hour photoperiod. Test pots were maintained in the greenhouse until test completion.
# (§3) At time of treatment, test pots were flooded to 3 cm above the soil surface, treated by application of test compounds directly to the paddy water, and then maintained at that water depth for the duration of the test. Effects of treatments on rice and weeds were visually evaluated by comparison to untreated controls after 21 days. Plant response ratings, summarized in Table E, are based on a scale of 0 to 100 where 0 is no effect and 100 is complete control. A dash (-) response means no test result.
# [12] = system: early watergrass (Echinochloa oryzoides); test: Test E flooded paddy rice and weeds; conditions: applied to paddy water, 21 days, scale 0 to 100
# Description: as §1, §2, §3
# [13] = system: sedge (smallflower umbrella sedge, Cyperus difformis); test: Test E flooded paddy rice and weeds; conditions: applied to paddy water, 21 days, scale 0 to 100
# Description: as §1, §2, §3
# [14] = system: deadnettle (henbit deadnettle, Lamium amplexicaule); test: Test B pre-/postemergence plant response; conditions: Postemergence
# Procedure, shortened: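 Visual ratings on a 0–100 scale (100 = complete control) were made versus untreated controls 13–15 days after treatment in a greenhouse. Compounds in surfactant-containing non-phytotoxic solvent were applied preemergence to seeds in loam–sand blend or postemergence to 1- to 4-leaf plants (2–18 cm).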
# [15] = 31 g ai/ha, 0 to 100 scale (0 no effect, 100 complete control)
# [16] = 125 g ai/ha, scale 0 to 100 (0 no effect, 100 complete control)
# [17] = 250 g ai/ha, scale 0 to 100 (0 no effect, 100 complete control), 13 to 15 days
structure (smiles),measurement,setting,value
"O=C1CCCC(O)=C1C(=O)c1cnc(-c2ccccc2)n(-c2ccccc2)c1=O [Compound 2, 5-[(2-hydroxy-6-oxo-1-cyclohexen-1-yl)carbonyl]-2,3-diphenyl-4(3H)-pyrimidinone]",Plant response rating: Windgrass,[1]; 62 g ai/ha,25
same,Plant response rating: Windgrass,[1]; 125 g ai/ha,25
same,Plant response rating: Windgrass,[1]; 16 g ai/ha,0
same,Plant response rating: Windgrass,[1]; 31 g ai/ha,15
same,"Plant response rating: Buckwheat, Wild",[2]; 62 g ai/ha,0
same,"Plant response rating: Buckwheat, Wild",[2]; 125 g ai/ha,0
same,"Plant response rating: Buckwheat, Wild",[2]; 16 g ai/ha,0
same,"Plant response rating: Buckwheat, Wild",[2]; 31 g ai/ha,0
same,Plant response rating: Deadnettle,[3]; 62 g ai/ha,95
same,Plant response rating: Deadnettle,[3]; 125 g ai/ha,98
same,Plant response rating: Deadnettle,[3]; 16 g ai/ha,0
same,Plant response rating: Deadnettle,[3]; 31 g ai/ha,75
same,"Plant response rating: Barley, Spring",[4]; 62 g ai/ha,0
same,"Plant response rating: Barley, Spring",[4]; 125 g ai/ha,0
same,"Plant response rating: Barley, Spring",[4]; 16 g ai/ha,0
same,"Plant response rating: Barley, Spring",[4]; 31 g ai/ha,0
same,"Plant response rating: Ryegrass, Italian",[5]; 62 g ai/ha,0
same,"Plant response rating: Ryegrass, Italian",[5]; 125 g ai/ha,0
same,"Plant response rating: Ryegrass, Italian",[5]; 16 g ai/ha,0
same,"Plant response rating: Ryegrass, Italian",[5]; 31 g ai/ha,0
same,"Plant response rating: Mustard, Wild",[6]; 62 g ai/ha,5
same,"Plant response rating: Mustard, Wild",[6]; 125 g ai/ha,35
same,"Plant response rating: Mustard, Wild",[6]; 16 g ai/ha,0
same,"Plant response rating: Mustard, Wild",[6]; 31 g ai/ha,0
same,Plant response rating: Field Violet,[7]; 62 g ai/ha,0
same,Plant response rating: Field Violet,[7]; 125 g ai/ha,0
same,Plant response rating: Field Violet,[7]; 16 g ai/ha,0
same,Plant response rating: Field Violet,[7]; 31 g ai/ha,0
same,"Plant response rating: Foxtail, Green",[8]; 62 g ai/ha,0
same,"Plant response rating: Foxtail, Green",[8]; 125 g ai/ha,0
same,"Plant response rating: Foxtail, Green",[8]; 16 g ai/ha,0
same,"Plant response rating: Foxtail, Green",[8]; 31 g ai/ha,0
same,Plant response rating: Blackgrass,[9]; 62 g ai/ha,0
same,Plant response rating: Blackgrass,[9]; 125 g ai/ha,0
same,Plant response rating: Blackgrass,[9]; 16 g ai/ha,0
same,Plant response rating: Blackgrass,[9]; 31 g ai/ha,0
same,Plant response rating: Canarygrass,[10]; 62 g ai/ha,0
same,Plant response rating: Canarygrass,[10]; 125 g ai/ha,10
same,Plant response rating: Canarygrass,[10]; 16 g ai/ha,0
same,Plant response rating: Canarygrass,[10]; 31 g ai/ha,0
COc1cccc(-n2c(-c3ccccc3)ncc(C(=O)C3=C(O)CCCC3=O)c2=O)c1 [Compound 19],"Plant response rating, Bulrush, Ricefield, Flood",[11]; 64 g ai/ha,50
same,"Plant response rating, Bulrush, Ricefield, Flood",[11]; 125 g ai/ha,70
same,"Plant response rating, Bulrush, Ricefield, Flood",[11]; 250 g ai/ha,70
same,"Plant response rating, Bulrush, Ricefield, Flood",[11]; 500 g ai/ha,75
same,"Plant response rating, Watergrass, Early, Flood",[12]; 64 g ai/ha,20
same,"Plant response rating, Watergrass, Early, Flood",[12]; 125 g ai/ha,45
same,"Plant response rating, Watergrass, Early, Flood",[12]; 250 g ai/ha,65
same,"Plant response rating, Watergrass, Early, Flood",[12]; 500 g ai/ha,85
same,"Plant response rating, Sedge, Umbrella, Flood",[13]; 64 g ai/ha,90
same,"Plant response rating, Sedge, Umbrella, Flood",[13]; 125 g ai/ha,100
same,"Plant response rating, Sedge, Umbrella, Flood",[13]; 250 g ai/ha,100
same,"Plant response rating, Sedge, Umbrella, Flood",[13]; 500 g ai/ha,100
O=C1CCCC(O)=C1C(=O)c1cnc(-c2ccsc2)n(C2CCOCC2)c1=O [Compound 186],"Plant response rating, Deadnettle",[14]; [15],90
same,"Plant response rating, Deadnettle",[14]; [16],100
same,"Plant response rating, Deadnettle",[14]; [17],100
CCCCn1c(C2CC2)ncc(C(=O)C2=C(O)CCCC2=O)c1=O [Compound 193],"Plant response rating, Deadnettle",[14]; [15],100
same,"Plant response rating, Deadnettle",[14]; [16],100
same,"Plant response rating, Deadnettle",[14]; [17],100
same,"Plant response rating, Deadnettle","[14]; 62 g ai/ha, scale 0 to 100 (0 no effect, 100 complete control)",100
